Experimental data as given in patent US20230184770A1, “Exosome Analysis And Brain Tumors” (Institute For Cancer Research d/b/a The Research Institute …, priority 2020, published 2023).

Legend:
[1] = tested on: medulloblastoma cells from Ptch1−/− mice; assay: Medulloblastoma cell proliferation, 48 h treatment (Ki67 immunocytochemistry); format: cell-based, mouse
Experimental: (§1) To examine the functions of exosomes in medulloblastoma cell proliferation, tumor cells from Ptch1^−/− mice were isolated and treated with GW4869 or DMSO for 48 hours. […] To determine whether tumor cell-derived exosomes mediate vismodegib resistance, exosomes from medulloblastoma cells were collected and treated with 200 nM of vismodegib for 48 hours. Medulloblastoma cells from Ptch1^−/− mice were treated with DMSO, vismodegib, or vismodegib together with tumor cell-derived exosomes for 48 hours. Following treatment, medulloblastoma cells were harvested to examine their proliferation by immunocytochemistry (see, FIG. 4). […] Finally, exosomes from medulloblastoma cells were harvested and treated with DMSO or vismodegib for 48 hours.

[2] = tested on: MB-luciferase cells injected into the cerebellum; assay: In vivo bioluminescence imaging of MB-luciferase tumor growth in NSG mice; set-up: species or system mouse
Experimental: MB-luciferase cells were generated and stereotaxically injected into the cerebellum of 6- to 8-week-old NSG mice. Animals were monitored weekly using in vivo bioluminescence imaging and bioluminescence was detected as Day 0. The tumor-bearing mice were treated with vismodegib (50 mg/kg) for 7 days. These mice were separated into two groups randomly, one group was treated with a vehicle and another group was treated with GW4869 (1.25 mg/kg per day) for 3 weeks (FIG. 9A). They were monitored weekly using in vivo bioluminescence imaging (FIG. 9B).

[3] = tested on: Gli1 mRNA (shh signaling) in medulloblastoma cells; assay: Gli1 mRNA levels in MB cells by q-PCR; format: cell-based, mouse; settings: MB cells after 48 hours treatment
Experimental: as §1

[4] = tested on: Ras protein in exosomes derived from medulloblastoma cells; assay: Western blotting of Ras in exosomes from treated MB cells; format: cell-based, mouse; settings: exosomes from MB cells treated with DMSO or vismodegib for 48 hours
Experimental: as §1

Structure (SMILES)	medulloblastoma cell proliferation ([1]; tumor cells from Ptch1−/− mice, GW4869 vs DMSO, data not shown)	tumor growth (bioluminescence) after 28 days, with vs without GW4869 ([2]; after vismodegib 50 mg/kg 7 days, GW4869 1.25 mg/kg per day 3 weeks vs vehicle, p<0.05)	medulloblastoma cell proliferation (Ki67+ cells) ([1]; MB cells from Ptch1−/− mice, DMSO vs vismodegib vs vismodegib + exosomes, exosome-donor cells vismodegib 200 nM)	Gli1 mRNA levels [3]	Ras protein in exosomes [4]	tumor growth (bioluminescence) ([2]; vismodegib 50 mg/kg for 7 days)
Cl.Cl.O=C(C=Cc1ccc(C=CC(=O)Nc2ccc(C3=NCCN3)cc2)cc1)Nc1ccc(C2=NCCN2)cc1 [GW4869, N,N′-Bis[4-(4,5-dihydro-1H-imidazol-2-yl)phenyl]-3,3′-p-phenylene-bis-acrylamide dihydrochloride]	significantly repressed medulloblastoma cell proliferation	significant difference				
CS(=O)(=O)c1ccc(C(=O)Nc2ccc(Cl)c(-c3ccccn3)c2)c(Cl)c1 [vismodegib]			significantly repressed tumor cell proliferation	decreased	readily detected	significantly reduce tumor growth
